*1 amine or outer side, *2 acyl side, *3 side chain or, on linkers, in order; H or OH if unused. Where a SMILES comes first, the peptide text is derived from it. Side-chain parts run from the residue outwards. The star is where a group is joined. NH(CH2)3O(βDGlc) = OC[C@H]1O[C@@H](OCCCN*)[C@H](O)[C@@H](O)[C@@H]1O; Glutaryl = O=C(CCCC(=O)[*:2])[*:1]; Lauroyl = CCCCCCCCCCCC(=O)*
Experiments:
B16-F10 = assay: Cytotoxicity against mouse B16-F10 cells assessed as cell viability after 24 hrs by CCK-8 assay; assay type: functional, cell-based; settings: B16-F10, 24 h
[1] = biological target: T1, Solute carrier family 2, facilitated glucose transporter member 1 (Homo sapiens) (UniProt P11166); assay: Binding affinity to GLUT1 (unknown origin) membrane assessed as free energy
T1 sequence (whole entry): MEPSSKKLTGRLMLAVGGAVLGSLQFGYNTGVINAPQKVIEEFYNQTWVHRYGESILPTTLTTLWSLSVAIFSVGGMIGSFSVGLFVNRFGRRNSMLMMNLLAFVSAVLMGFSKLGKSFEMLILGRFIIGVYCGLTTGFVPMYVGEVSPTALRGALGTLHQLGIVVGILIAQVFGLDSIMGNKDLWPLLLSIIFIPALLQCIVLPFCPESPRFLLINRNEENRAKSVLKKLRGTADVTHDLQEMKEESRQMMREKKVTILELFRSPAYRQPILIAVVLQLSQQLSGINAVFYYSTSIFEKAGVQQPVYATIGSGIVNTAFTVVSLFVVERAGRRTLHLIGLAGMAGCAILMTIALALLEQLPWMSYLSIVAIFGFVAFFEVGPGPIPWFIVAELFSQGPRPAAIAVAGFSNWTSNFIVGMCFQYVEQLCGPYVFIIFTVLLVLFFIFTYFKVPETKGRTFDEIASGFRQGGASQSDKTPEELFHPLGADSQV

[2] = biological target: T1, Solute carrier family 2, facilitated glucose transporter member 1 (Homo sapiens); assay: Binding affinity to GLUT1 (unknown origin) assessed as binding free energy
Homo sapiens = species on record: Homo sapiens; assay: Binding affinity to membrane (unknown origin) assessed as binding free energy
MX1 = assay: Cytotoxicity against human MX1 cells assessed as cell viability measured after 24 hrs by CCK-8 assay; assay type: functional, cell-based; settings: MX1, 24 h
MCF7 = assay: Cytotoxicity against human MCF7 cells assessed as cell viability measured after 24 hrs by CCK-8 assay; assay type: functional, cell-based; settings: MCF7, 24 h
MDA-MB-231 = assay: Cytotoxicity against human MDA-MB-231 cells assessed as cell viability measured after 24 hrs by CCK-8 assay; assay type: functional, cell-based; settings: MDA-MB-231, 24 h

deltaG [1]	deltaG [2]	deltaG (Homo sapiens)	Compound	IC50 (B16-F10)	IC50 (MX1)	IC50 (MCF7)	IC50 (MDA-MB-231)
-87.4 kcal/mol	-58.5 kcal/mol	-27.5 kcal/mol	CCCCCCCCCCCC(=O)N[C@@H](CCCNC(=N)N)C(=O)NCC(=O)N[C@@H](Cc1c[nH]c2ccccc12)C(=O)N[C@@H](Cc1ccccc1)C(=O)N[C@@H](CCCNC(=N)N)C(=O)N[C@@H](C)C(=O)N[C@@H](CCSC)C(=O)N[C@@H](CCCCNC(=O)CCCC(=O)NCCCO[C@@H]1O[C@H](CO)[C@@H](O)[C@H](O)[C@H]1O)C(=O)N[C@@H](CO)C(=O)N[C@H](C(=O)N[C@@H](C)C(=O)N[C@@H](CCCNC(=N)N)C(=O)N[C@@H](Cc1ccccc1)C(=O)N[C@H](C(=O)N[C@@H](C)C(=O)N[C@@H](CCCNC(=N)N)C(=O)N[C@@H](CCC(=O)O)C(=O)N[C@@H](CCCNC(=N)N)C(=O)N[C@@H](CC(C)C)C(=O)N[C@@H](CCCNC(=N)N)C(=O)N[C@@H](CCC(=O)O)C(=O)N[C@@H](Cc1cnc[nH]1)C(=O)N[C@@H](CC(C)C)C(N)=O)[C@@H](C)CC)[C@@H](C)CC (Lauroyl-RGWFRAMK([Glutaryl-NH(CH2)3O(βDGlc)])SIARFIARERLREHL-NH2)	4.1 µM	–	–	–
–	–	–	CCCCCCCCCCCCCC(=O)N[C@@H](CCCNC(=N)N)C(=O)N[C@@H](Cc1c[nH]c2ccccc12)C(=O)N[C@@H](CCCCN)C(=O)N[C@H](C(=O)N[C@@H](Cc1ccccc1)C(=O)N[C@@H](CCCCN)C(=O)N[C@@H](CCCCN)C(=O)N[C@H](C(=O)N[C@@H](CCC(=O)O)C(=O)N[C@@H](CCCCN)C(=O)N[C@H](C(=O)NCC(=O)N[C@@H](CCC(N)=O)C(=O)N[C@@H](CC(N)=O)C(=O)N[C@H](C(=O)N[C@@H](CCCNC(=N)N)C(=O)N[C@@H](CC(=O)O)C(=O)NCC(=O)N[C@H](C(=O)N[C@H](C(=O)N[C@@H](CCCCN)C(=O)N[C@@H](C)C(=O)NCC(=O)N1CCC[C@H]1C(=O)N[C@@H](C)C(=O)N[C@H](C(=O)N[C@@H](C)C(=O)N[C@H](C(=O)N[C@H](C(=O)NCC(=O)N[C@@H](CCC(N)=O)C(=O)N[C@@H](C)C(=O)N[C@@H](C)C(=O)N[C@H](C(=O)N[C@H](C(N)=O)[C@@H](C)CC)[C@@H](C)O)C(C)C)C(C)C)C(C)C)C(C)C)[C@@H](C)CC)[C@@H](C)CC)C(C)C)[C@@H](C)CC)[C@@H](C)CC (HELM PEPTIDE1{[CCCCCCCCCCCCCC(=O)[*:2]].R.W.K.I.F.K.K.I.E.K.V.G.Q.N.I.R.D.G.I.V.K.A.G.P.A.V.A.V.V.G.Q.A.A.T.I.[am]}$$$$V2.0)	–	< 8 µM	< 8 µM	< 8 µM
–	–	–	H-RWKIFKKIEKVGQNIRDGIVKAGPAVAVVGQAATI-NH2	–	< 8 µM	< 8 µM	< 8 µM
–	–	–	CCCCCCCCCCCCCCCC(=O)N[C@@H](CCCNC(=N)N)C(=O)N[C@@H](Cc1c[nH]c2ccccc12)C(=O)N[C@@H](CCCCN)C(=O)N[C@H](C(=O)N[C@@H](Cc1ccccc1)C(=O)N[C@@H](CCCCN)C(=O)N[C@@H](CCCCN)C(=O)N[C@H](C(=O)N[C@@H](CCC(=O)O)C(=O)N[C@@H](CCCCN)C(=O)N[C@H](C(=O)NCC(=O)N[C@@H](CCC(N)=O)C(=O)N[C@@H](CC(N)=O)C(=O)N[C@H](C(=O)N[C@@H](CCCNC(=N)N)C(=O)N[C@@H](CC(=O)O)C(=O)NCC(=O)N[C@H](C(=O)N[C@H](C(=O)N[C@@H](CCCCN)C(=O)N[C@@H](C)C(=O)NCC(=O)N1CCC[C@H]1C(=O)N[C@@H](C)C(=O)N[C@H](C(=O)N[C@@H](C)C(=O)N[C@H](C(=O)N[C@H](C(=O)NCC(=O)N[C@@H](CCC(N)=O)C(=O)N[C@@H](C)C(=O)N[C@@H](C)C(=O)N[C@H](C(=O)N[C@H](C(N)=O)[C@@H](C)CC)[C@@H](C)O)C(C)C)C(C)C)C(C)C)C(C)C)[C@@H](C)CC)[C@@H](C)CC)C(C)C)[C@@H](C)CC)[C@@H](C)CC (HELM PEPTIDE1{[CCCCCCCCCCCCCCCC(=O)[*:2]].R.W.K.I.F.K.K.I.E.K.V.G.Q.N.I.R.D.G.I.V.K.A.G.P.A.V.A.V.V.G.Q.A.A.T.I.[am]}$$$$V2.0)	–	< 8 µM	< 8 µM	< 8 µM
-79.9 kcal/mol	-61 kcal/mol	-87.9 kcal/mol	CCCCCCCCCCCC(=O)N[C@@H](CCCNC(=N)N)C(=O)NCC(=O)N[C@@H](Cc1c[nH]c2ccccc12)C(=O)N[C@@H](Cc1ccccc1)C(=O)N[C@@H](CCCNC(=N)N)C(=O)N[C@@H](C)C(=O)N[C@@H](CCSC)C(=O)N[C@@H](CCCNC(=N)N)C(=O)N[C@@H](CO)C(=O)N[C@H](C(=O)N[C@@H](C)C(=O)N[C@@H](CCCNC(=N)N)C(=O)N[C@@H](Cc1ccccc1)C(=O)N[C@@H](CC(C)C)C(=O)N[C@@H](C)C(=O)N[C@@H](CCCCNC(=O)CCCC(=O)NCCCO[C@@H]1O[C@H](CO)[C@@H](O)[C@H](O)[C@H]1O)C(=O)N[C@@H](CCC(=O)O)C(=O)N[C@@H](CCCNC(=N)N)C(=O)N[C@@H](CC(C)C)C(=O)N[C@@H](CCCNC(=N)N)C(=O)N[C@@H](CCC(=O)O)C(=O)N[C@@H](Cc1cnc[nH]1)C(=O)N[C@@H](CC(C)C)C(N)=O)[C@@H](C)CC (Lauroyl-RGWFRAMRSIARFLAK([Glutaryl-NH(CH2)3O(βDGlc)])ERLREHL-NH2)	3.8 µM	–	–	–
-72.8 kcal/mol	-60.1 kcal/mol	-66.8 kcal/mol	CCCCCCCCCCCC(=O)N[C@@H](CCCNC(=N)N)C(=O)NCC(=O)N[C@@H](Cc1c[nH]c2ccccc12)C(=O)N[C@@H](Cc1ccccc1)C(=O)N[C@@H](CCCNC(=N)N)C(=O)N[C@@H](C)C(=O)N[C@@H](CCSC)C(=O)N[C@@H](CCCNC(=N)N)C(=O)N[C@@H](CO)C(=O)N[C@H](C(=O)N[C@@H](C)C(=O)N[C@@H](CCCNC(=N)N)C(=O)N[C@@H](Cc1ccccc1)C(=O)N[C@H](C(=O)N[C@@H](C)C(=O)N[C@@H](CCCNC(=N)N)C(=O)N[C@@H](CCC(=O)O)C(=O)N[C@@H](CCCCNC(=O)CCCC(=O)NCCCO[C@@H]1O[C@H](CO)[C@@H](O)[C@H](O)[C@H]1O)C(=O)N[C@@H](CC(C)C)C(=O)N[C@@H](CCCNC(=N)N)C(=O)N[C@@H](CCC(=O)O)C(=O)N[C@@H](Cc1cnc[nH]1)C(=O)N[C@@H](CC(C)C)C(N)=O)[C@@H](C)CC)[C@@H](C)CC (Lauroyl-RGWFRAMRSIARFIAREK([Glutaryl-NH(CH2)3O(βDGlc)])LREHL-NH2)	3.3 µM	–	–	–
-73.7 kcal/mol	-61.7 kcal/mol	-61.5 kcal/mol	CCCCCCCCCCCC(=O)N[C@@H](CCCCNC(=O)CCCC(=O)NCCCO[C@@H]1O[C@H](CO)[C@@H](O)[C@H](O)[C@H]1O)C(=O)NCC(=O)N[C@@H](Cc1c[nH]c2ccccc12)C(=O)N[C@@H](Cc1ccccc1)C(=O)N[C@@H](CCCNC(=N)N)C(=O)N[C@@H](C)C(=O)N[C@@H](CCSC)C(=O)N[C@@H](CCCNC(=N)N)C(=O)N[C@@H](CO)C(=O)N[C@H](C(=O)N[C@@H](C)C(=O)N[C@@H](CCCNC(=N)N)C(=O)N[C@@H](Cc1ccccc1)C(=O)N[C@H](C(=O)N[C@@H](C)C(=O)N[C@@H](CCCNC(=N)N)C(=O)N[C@@H](CCC(=O)O)C(=O)N[C@@H](CCCNC(=N)N)C(=O)N[C@@H](CC(C)C)C(=O)N[C@@H](CCCNC(=N)N)C(=O)N[C@@H](CCC(=O)O)C(=O)N[C@@H](Cc1cnc[nH]1)C(=O)N[C@@H](CC(C)C)C(N)=O)[C@@H](C)CC)[C@@H](C)CC (Lauroyl-K([Glutaryl-NH(CH2)3O(βDGlc)])GWFRAMRSIARFIARERLREHL-NH2)	7.2 µM	–	–	–
-123 kcal/mol	-77.1 kcal/mol	-65.7 kcal/mol	CCCCCCCCCCCC(=O)N[C@@H](CCCNC(=N)N)C(=O)NCC(=O)N[C@@H](Cc1c[nH]c2ccccc12)C(=O)N[C@@H](Cc1ccccc1)C(=O)N[C@@H](CCCNC(=N)N)C(=O)N[C@@H](C)C(=O)N[C@@H](CCSC)C(=O)N[C@@H](CCCNC(=N)N)C(=O)N[C@@H](CO)C(=O)N[C@H](C(=O)N[C@@H](C)C(=O)N[C@@H](CCCNC(=N)N)C(=O)N[C@@H](Cc1ccccc1)C(=O)N[C@H](C(=O)N[C@@H](C)C(=O)N[C@@H](CCCNC(=N)N)C(=O)N[C@@H](CCC(=O)O)C(=O)N[C@@H](CCCNC(=N)N)C(=O)N[C@@H](CC(C)C)C(=O)N[C@@H](CCCCNC(=O)CCCC(=O)NCCCO[C@@H]1O[C@H](CO)[C@@H](O)[C@H](O)[C@H]1O)C(=O)N[C@@H](CCC(=O)O)C(=O)N[C@@H](Cc1cnc[nH]1)C(=O)N[C@@H](CC(C)C)C(N)=O)[C@@H](C)CC)[C@@H](C)CC (Lauroyl-RGWFRAMRSIARFIARERLK([Glutaryl-NH(CH2)3O(βDGlc)])EHL-NH2)	3.5 µM	–	–	–
-64.1 kcal/mol	-64.3 kcal/mol	-63.6 kcal/mol	CCCCCCCCCCCC(=O)N[C@@H](CCCNC(=N)N)C(=O)NCC(=O)N[C@@H](Cc1c[nH]c2ccccc12)C(=O)N[C@@H](Cc1ccccc1)C(=O)N[C@@H](CCCCNC(=O)CCCC(=O)NCCCO[C@@H]1O[C@H](CO)[C@@H](O)[C@H](O)[C@H]1O)C(=O)N[C@@H](C)C(=O)N[C@@H](CCSC)C(=O)N[C@@H](CCCNC(=N)N)C(=O)N[C@@H](CO)C(=O)N[C@H](C(=O)N[C@@H](C)C(=O)N[C@@H](CCCNC(=N)N)C(=O)N[C@@H](Cc1ccccc1)C(=O)N[C@H](C(=O)N[C@@H](C)C(=O)N[C@@H](CCCNC(=N)N)C(=O)N[C@@H](CCC(=O)O)C(=O)N[C@@H](CCCNC(=N)N)C(=O)N[C@@H](CC(C)C)C(=O)N[C@@H](CCCNC(=N)N)C(=O)N[C@@H](CCC(=O)O)C(=O)N[C@@H](Cc1cnc[nH]1)C(=O)N[C@@H](CC(C)C)C(N)=O)[C@@H](C)CC)[C@@H](C)CC (Lauroyl-RGWFK([Glutaryl-NH(CH2)3O(βDGlc)])AMRSIARFIARERLREHL-NH2)	5.3 µM	–	–	–
